These are literature values, as cited in patent US11083704B2, “Method of administering nitroxyl donating compounds” (Cardioxyl Pharmaceuticals, Inc., priority 2017, dated 2021).

SMILES strings stand for the structures.

For data set [1] the following is noted: preclinical models and Phase I/IIa studies.
The conditions of data set [2]: healthy patients and patients hospitalized with advanced heart failure.

Take `Cc1ccc(S(=O)(=O)NO)o1` [N-hydroxy-5-methylfuran-2-sulfonamide]: in data set [1], the inotropy result is “increased inotropy”, the lusitropy entry is given as “improved lusitropy” and the vasodilation result is “peripheral vasodilation”. Also, the “safety and tolerability of infusions” value in data set [2] was “safe and well-tolerated”.
